Results: the NIST ThermoML archive (doi:10.1016/j.jct.2012.06.030)

Assay: excess molar enthalpy (molar enthalpy of mixing); xn = mol fraction of the nth substance listed
Conditions: 101 kPa, Liquid, isothermal titration calorimeter

CCCCCC[n+]1ccc2ccccc2c1.N#C[S-] [2-hexylisoquinolinium thiocyanate] + O
Conditions | excess molar enthalpy [kcal/mol]
298.15 K, x1 = 0.0916 | 0.0327
298.15 K, x1 = 0.0938 | 0.0335
298.15 K, x1 = 0.0961 | 0.0344
298.15 K, x1 = 0.0985 | 0.0351
298.15 K, x1 = 0.101 | 0.0361
298.15 K, x1 = 0.1036 | 0.0368
298.15 K, x1 = 0.1064 | 0.0378
298.15 K, x1 = 0.1093 | 0.0387
298.15 K, x1 = 0.1125 | 0.0399
298.15 K, x1 = 0.1157 | 0.0409
298.15 K, x1 = 0.1192 | 0.0421
298.15 K, x1 = 0.1229 | 0.0435
298.15 K, x1 = 0.1264 | 0.0445
298.15 K, x1 = 0.1301 | 0.0459
298.15 K, x1 = 0.134 | 0.0471
298.15 K, x1 = 0.1381 | 0.0485
298.15 K, x1 = 0.1426 | 0.0502
298.15 K, x1 = 0.1473 | 0.0516
298.15 K, x1 = 0.1523 | 0.0533
298.15 K, x1 = 0.1577 | 0.0552
298.15 K, x1 = 0.1635 | 0.0571
298.15 K, x1 = 0.1697 | 0.0593
298.15 K, x1 = 0.1764 | 0.0617
298.15 K, x1 = 0.1836 | 0.0641
298.15 K, x1 = 0.1915 | 0.0667
298.15 K, x1 = 0.2001 | 0.0696
298.15 K, x1 = 0.2095 | 0.0727
298.15 K, x1 = 0.2198 | 0.076
298.15 K, x1 = 0.2312 | 0.0798
298.15 K, x1 = 0.2439 | 0.0834
298.15 K, x1 = 0.258 | 0.0846
298.15 K, x1 = 0.2738 | 0.0832
298.15 K, x1 = 0.2917 | 0.077
298.15 K, x1 = 0.3095 | 0.0691
298.15 K, x1 = 0.3296 | 0.0581
298.15 K, x1 = 0.3525 | 0.0449
298.15 K, x1 = 0.3749 | 0.0325
298.15 K, x1 = 0.4002 | 0.0189
298.15 K, x1 = 0.424 | 0.00672
298.15 K, x1 = 0.4509 | -0.00614
298.15 K, x1 = 0.4749 | -0.0166
298.15 K, x1 = 0.5016 | -0.027
298.15 K, x1 = 0.5315 | -0.037
298.15 K, x1 = 0.5562 | -0.044
298.15 K, x1 = 0.5833 | -0.05
298.15 K, x1 = 0.6133 | -0.055
298.15 K, x1 = 0.6464 | -0.0586
298.15 K, x1 = 0.6834 | -0.0602
298.15 K, x1 = 0.7102 | -0.0598
298.15 K, x1 = 0.7393 | -0.0583
298.15 K, x1 = 0.7708 | -0.0552
298.15 K, x1 = 0.8051 | -0.0502
298.15 K, x1 = 0.8229 | -0.0471
298.15 K, x1 = 0.8415 | -0.0435
298.15 K, x1 = 0.861 | -0.039
298.15 K, x1 = 0.8815 | -0.0342
298.15 K, x1 = 0.9029 | -0.0287
298.15 K, x1 = 0.9253 | -0.0225
298.15 K, x1 = 0.949 | -0.0156
298.15 K, x1 = 0.9738 | -0.00798
303.15 K, x1 = 0.0899 | 0.0318
303.15 K, x1 = 0.092 | 0.0325
303.15 K, x1 = 0.0942 | 0.0332
303.15 K, x1 = 0.0965 | 0.0339
303.15 K, x1 = 0.099 | 0.0347
303.15 K, x1 = 0.1016 | 0.0356
303.15 K, x1 = 0.1043 | 0.0366
303.15 K, x1 = 0.1071 | 0.0373
303.15 K, x1 = 0.1102 | 0.0385
303.15 K, x1 = 0.1134 | 0.0394
303.15 K, x1 = 0.1168 | 0.0406
303.15 K, x1 = 0.1204 | 0.0418
303.15 K, x1 = 0.1238 | 0.0428
303.15 K, x1 = 0.1274 | 0.044
303.15 K, x1 = 0.1312 | 0.0452
303.15 K, x1 = 0.1352 | 0.0466
303.15 K, x1 = 0.1395 | 0.048
303.15 K, x1 = 0.1441 | 0.0495
303.15 K, x1 = 0.1489 | 0.0511
303.15 K, x1 = 0.1542 | 0.0528
303.15 K, x1 = 0.1598 | 0.0547
303.15 K, x1 = 0.1658 | 0.0566
303.15 K, x1 = 0.1723 | 0.0588
303.15 K, x1 = 0.1793 | 0.0612
303.15 K, x1 = 0.187 | 0.0636
303.15 K, x1 = 0.1953 | 0.0664
303.15 K, x1 = 0.2044 | 0.0693
303.15 K, x1 = 0.2144 | 0.0727
303.15 K, x1 = 0.2254 | 0.0748
303.15 K, x1 = 0.2375 | 0.0779
303.15 K, x1 = 0.2511 | 0.0803
303.15 K, x1 = 0.2663 | 0.0805
303.15 K, x1 = 0.2835 | 0.0772
303.15 K, x1 = 0.3031 | 0.071
303.15 K, x1 = 0.3255 | 0.0609
303.15 K, x1 = 0.3483 | 0.048
303.15 K, x1 = 0.3744 | 0.032
303.15 K, x1 = 0.4001 | 0.0169
303.15 K, x1 = 0.4295 | 0.000844
303.15 K, x1 = 0.4576 | -0.0129
303.15 K, x1 = 0.4895 | -0.0268
303.15 K, x1 = 0.5184 | -0.0375
303.15 K, x1 = 0.5509 | -0.0473
303.15 K, x1 = 0.578 | -0.054
303.15 K, x1 = 0.6079 | -0.0595
303.15 K, x1 = 0.641 | -0.0638
303.15 K, x1 = 0.6779 | -0.066
303.15 K, x1 = 0.7193 | -0.0655
303.15 K, x1 = 0.7496 | -0.0636
303.15 K, x1 = 0.7826 | -0.0598
303.15 K, x1 = 0.8185 | -0.054
303.15 K, x1 = 0.858 | -0.0464
303.15 K, x1 = 0.872 | -0.0421
303.15 K, x1 = 0.8864 | -0.037
303.15 K, x1 = 0.9014 | -0.0318
303.15 K, x1 = 0.9168 | -0.027
303.15 K, x1 = 0.9328 | -0.0221
303.15 K, x1 = 0.9494 | -0.0165
303.15 K, x1 = 0.9666 | -0.0104
303.15 K, x1 = 0.9844 | -0.00416
308.15 K, x1 = 0.0931 | 0.0332
308.15 K, x1 = 0.0953 | 0.0339
308.15 K, x1 = 0.0976 | 0.0347
308.15 K, x1 = 0.1 | 0.0355
308.15 K, x1 = 0.1025 | 0.0363
308.15 K, x1 = 0.1052 | 0.0372
308.15 K, x1 = 0.1081 | 0.0381
308.15 K, x1 = 0.111 | 0.0391
308.15 K, x1 = 0.1142 | 0.0401
308.15 K, x1 = 0.1175 | 0.0412
308.15 K, x1 = 0.1211 | 0.0423
308.15 K, x1 = 0.1248 | 0.0436
308.15 K, x1 = 0.1284 | 0.0447
308.15 K, x1 = 0.1321 | 0.0459
308.15 K, x1 = 0.1361 | 0.0473
308.15 K, x1 = 0.1403 | 0.0486
308.15 K, x1 = 0.1448 | 0.0501
308.15 K, x1 = 0.1496 | 0.0516
308.15 K, x1 = 0.1547 | 0.0533
308.15 K, x1 = 0.1602 | 0.0551
308.15 K, x1 = 0.166 | 0.057
308.15 K, x1 = 0.1723 | 0.0589
308.15 K, x1 = 0.1792 | 0.0612
308.15 K, x1 = 0.1865 | 0.0636
308.15 K, x1 = 0.1945 | 0.0661
308.15 K, x1 = 0.2033 | 0.069
308.15 K, x1 = 0.2128 | 0.0718
308.15 K, x1 = 0.2233 | 0.0744
308.15 K, x1 = 0.2349 | 0.076
308.15 K, x1 = 0.2478 | 0.0778
308.15 K, x1 = 0.2621 | 0.0795
308.15 K, x1 = 0.2782 | 0.0785
308.15 K, x1 = 0.2941 | 0.0754
308.15 K, x1 = 0.3119 | 0.0706
308.15 K, x1 = 0.332 | 0.063
308.15 K, x1 = 0.3549 | 0.0511
308.15 K, x1 = 0.3772 | 0.0372
308.15 K, x1 = 0.4025 | 0.0214
308.15 K, x1 = 0.4262 | 0.00743
308.15 K, x1 = 0.4529 | -0.00703
308.15 K, x1 = 0.4767 | -0.0189
308.15 K, x1 = 0.5032 | -0.0306
308.15 K, x1 = 0.5328 | -0.0421
308.15 K, x1 = 0.5573 | -0.05
308.15 K, x1 = 0.5841 | -0.0571
308.15 K, x1 = 0.6137 | -0.0629
308.15 K, x1 = 0.6464 | -0.0672
308.15 K, x1 = 0.6827 | -0.0693
308.15 K, x1 = 0.7091 | -0.0693
308.15 K, x1 = 0.7376 | -0.0674
308.15 K, x1 = 0.7685 | -0.0641
308.15 K, x1 = 0.802 | -0.059
308.15 K, x1 = 0.8213 | -0.0557
308.15 K, x1 = 0.8416 | -0.0519
308.15 K, x1 = 0.8628 | -0.0471
308.15 K, x1 = 0.883 | -0.0418
308.15 K, x1 = 0.9042 | -0.0356
308.15 K, x1 = 0.9264 | -0.0289
308.15 K, x1 = 0.9497 | -0.0213
308.15 K, x1 = 0.9742 | -0.0116
